From patent US12528814B2, “Bifunctional degraders of interleukin-1 receptor-associated kinases and therapeutic use thereof” (NURIX THERAPEUTICS, INC., priority 2020, dated 2026) come the findings set out here.

Where two headings read alike, the source gives them in different places.

The target of experiment [1] is T1, IRAK4 (Homo sapiens (Human), UniProt Q9NWZ3). As to the kind of experiment: IRAK4 Biochemical HTRF Kinase Assay. As to conditions: read-out: IRAK4 HTRF biochemical: IC50. The method, then: IRAK4 Biochemical HTRF Kinase Assay
The binding capacities of certain bifunctional compounds of Formula (I) were determined using the CisBio HTRF KinEASE STK S1 Kit (#62ST1PEB, contains 5× Kinase buffer, 1× Detection Buffer, anti-phospho-serine/threonine-cryptate, Streptavidin-XL665, and STK-S1), which measures the phosphorylation of a biotinylated peptide substrate by IRAK4, according to the manufacturer's protocol. […] 2 μl of a reaction solution containing 5 μM STK-S1, 10 mM ATP, and 10 mM MgCl2 were added to each well to a final volume of 10 μl. Assay controls include wells containing kinase with no compound (DMSO only) and wells containing no kinase and no compound (DMSO only). The reactions were allowed to proceed at ambient temperature for 90 minutes. […] The plates were incubated for 60 minutes at ambient temperature and then read on an Envision Multilabel Reader (PerkinElmer). […] For IC50 determination, the compounds were tested at sixteen concentrations in duplicate and curve-fitting was performed by non-linear regression analysis using GraphPad Priam.
(In general: TR-FRET usually uses a lanthanide donor and a delayed reading to cut background.)
Target sequence in this assay (Q9NWZ3 whole entry, species assumed): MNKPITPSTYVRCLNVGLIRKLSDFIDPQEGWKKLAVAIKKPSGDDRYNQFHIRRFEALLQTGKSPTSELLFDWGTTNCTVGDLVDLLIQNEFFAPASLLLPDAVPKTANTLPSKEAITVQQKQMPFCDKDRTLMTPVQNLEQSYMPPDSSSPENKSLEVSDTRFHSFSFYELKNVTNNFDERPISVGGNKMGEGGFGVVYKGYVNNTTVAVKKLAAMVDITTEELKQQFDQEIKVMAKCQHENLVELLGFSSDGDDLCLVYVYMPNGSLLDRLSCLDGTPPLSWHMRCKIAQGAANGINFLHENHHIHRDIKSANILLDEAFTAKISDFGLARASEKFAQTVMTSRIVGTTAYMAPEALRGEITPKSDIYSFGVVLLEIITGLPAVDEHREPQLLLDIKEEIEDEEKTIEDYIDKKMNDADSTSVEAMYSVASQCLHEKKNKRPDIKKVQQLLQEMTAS

For experiment [2], the target named is T1, IRAK4. Description: IRAK4 Degradation HiBiT Assay. As to conditions: HiBiT-tagged Jurkat cells, 4 hrs; for Dmax: Jurkat; for DC50: read-out: Cellular IRAK4 HiBiT: DC50.
Target sequence in this assay (Q9NWZ3 whole entry): as the sequence (Q9NWZ3 whole entry, species assumed) above
Where [3] appears, read: read-out: Cellular IRAK4 HiBiT: Dmax, Table 5, multiple runs.
Setting [4] is: read-out: Cellular IRAK4 HiBiT: Dmax, Table 4.

As to `CNc1cc(-c2ccc3cc(C#N)cnn23)ncc1-c1nnc([C@H]2CC[C@H](N(C)C(=O)CCN3CCN(c4ccc5c(c4)C(=O)N(C4CCC(=O)NC4=O)C5=O)CC3)CC2)s1` (some centres unmarked) [Example 188, N-((1r,4r)-4-(5-(6-(3-cyanopyrrolo[1,2-b]pyridazin-7-yl)-4-(methylamino)pyridin-3-yl)-1,3,4-thiadiazol-2-yl)cyclohexyl)-3-(4-(2-(2,6-dioxopiperidin-3-yl)-1,3-dioxoisoindolin-5-yl)piperazin-1-yl)-N-methylpropanamide], the IC50 at IRAK4 [1] (Table 5, multiple runs) was 0.5 nM. Moreover, the Dmax on IRAK4 [2] (setting [3]) stood at 108%. Also, the DC50 on IRAK4 [2] (Table 5, multiple runs) was found to be 16 nM.
`Cc1ncsc1-c1ccc(CNC(=O)[C@@H]2C[C@@H](O)CN2C(=O)C(NC(=O)[C@H]2CC[C@H](C(=O)N3CCN(c4nnc(-c5cnc(-c6ccc7cc(C#N)cnn67)cc5NC(C)C)s4)CC3)CC2)C(C)(C)C)cc1` (stereo partly drawn) [Example 45, (2S,4R)-1-((S)-2-((1r,4S)-4-(4-(5-(6-(3-cyanopyrrolo[1,2-b]pyridazin-7-yl)-4-(isopropylamino)pyridin-3-yl)-1,3,4-thiadiazol-2-yl)piperazine-1-carbonyl)cyclohexane-1-carboxamido)-3,3-dimethylbutanoyl)-4-hydroxy-N-(4-(4-methylthiazol-5-yl)benzyl)pyrrolidine-2-carboxamide]: the IC50 at IRAK4 [1] (Table 4) turned out to be 19 nM; on IRAK4 [1] (Table 5, multiple runs), 19 nM. For the same molecule, the figures for the Dmax on IRAK4 [2] (setting [4]) and at IRAK4 [2] (setting [3]) were 67% and 83%, respectively. For the same molecule, the DC50 was determined as 4330 nM on IRAK4 [2] (Table 4) and 2490 nM at IRAK4 [2] (Table 5, multiple runs).
For `CNc1cc(-c2ccc3cc(C#N)cnn23)ncc1-c1nnc([C@H]2CC[C@H](NC(=O)CCCCCOc3cc(-c4scnc4C)ccc3CNC(=O)[C@@H]3C[C@@H](O)CN3C(=O)[C@@H](NC(=O)C3(F)CC3)C(C)(C)C)CC2)s1` [Example 60, (2S,4R)—N-(2-((6-(((1r,4r)-4-(5-(6-(3-cyanopyrrolo[1,2-b]pyridazin-7-yl)-4-(methylamino)pyridin-3-yl)-1,3,4-thiadiazol-2-yl)cyclohexyl)amino)-6-oxohexyl)oxy)-4-(4-methylthiazol-5-yl)benzyl)-1-((S)-2-(1-fluorocyclopropane-1-carboxamido)-3,3-dimethylbutanoyl)-4-hydroxypyrrolidine-2-carboxamide], the IC50 on IRAK4 [1] (Table 4) came to 3.55 nM; on IRAK4 [1] (Table 5, multiple runs) it was 3.5 nM. The Dmax on IRAK4 [2] (setting [4]) came to 105%; on IRAK4 [2] (setting [3]), 112%. The DC50 was 159 nM on IRAK4 [2] (Table 4) and 111 nM on IRAK4 [2] (Table 5, multiple runs).
In the case of `CN[C@@H](C)C(=O)N[C@H](C(=O)N1C[C@@H](NC(=O)CCOCCC(=O)N2CCN(c3nnc(-c4cnc(-c5ccc6cc(C#N)cnn56)cc4NC(C)C)s3)CC2)C[C@H]1C(=O)N[C@@H]1CCCc2ccccc21)C1CCCCC1` [Example 54, (2S,4S)-4-(3-(3-(4-(5-(6-(3-cyanopyrrolo[1,2-b]pyridazin-7-yl)-4-(isopropylamino)pyridin-3-yl)-1,3,4-thiadiazol-2-yl)piperazin-1-yl)-3-oxopropoxy)propanamido)-1-((S)-2-cyclohexyl-2-((S)-2-(methylamino)propanamido)acetyl)-N—((R)-1,2,3,4-tetrahydronaphthalen-1-yl)pyrrolidine-2-carboxamide], the IC50 on IRAK4 [1] (Table 4) is 0.6 nM; on IRAK4 [1] (Table 5, multiple runs) it was 0.6 nM. In addition, the Dmax on IRAK4 [2] (setting [4]) and at IRAK4 [2] (setting [3]) was 48% throughout. Further, the half-maximal degradation concentration (DC50) on IRAK4 [2] (Table 4) is 816 nM; at IRAK4 [2] (Table 5, multiple runs), 794 nM.
Turning to `CNc1cc(-c2ccc3cc(C#N)cnn23)ncc1-c1nnc(C23CCC(NC(=O)C4CCN(c5cccc6c5C(=O)N(C5CCC(=O)NC5=O)C6=O)CC4)(CC2)CC3)s1` (centres unmarked) [Example 136, N-(4-(5-(6-(3-cyanopyrrolo[1,2-b]pyridazin-7-yl)-4-(methylamino)pyridin-3-yl)-1,3,4-thiadiazol-2-yl)bicyclo[2.2.2]octan-1-yl)-1-(2-(2,6-dioxopiperidin-3-yl)-1,3-dioxoisoindolin-4-yl)piperidine-4-carboxamide], the Dmax at IRAK4 [2] (setting [3]) came to 35%. In addition, the DC50 on IRAK4 [2] (Table 5, multiple runs) is 21.9 nM.

For orientation: IC50 means the midpoint of a concentration-inhibition curve. In general, Dmax refers to the greatest extent of degradation seen. For orientation: DC50 means the concentration at which degradation of the target reaches its halfway point.
